# According to US5434171A, “Preparation of 3,4,4-trisubstituted-piperidinyl-N-alkylcarboxylates and intermediates” (priority 1993, dated 1995):
# Counter-ions that a name gives are not always drawn.
# What was measured:
# [1] = pKa determination; format: physicochemical; settings: 67% aq. dmf
# [2] = Description: Alternatively, a crystalline salt of compound 19F.B. (free base) can be prepared as illustrated in Scheme 2 supra. Crystallization studies were conducted using 17 different acids with three solvents; ethyl acetate, acetone, and ethanol.
Compound,pKa [1],stability of crystalline salt of 19F.B. [2]
"CC(C)COC(=O)CN [Isobutyl glycine, p-toluenesulfonic acid salt]",7.68,
O=C(O)C[C@H](O)C(=O)O [L-malic],,crystalline salts stable at 25 °C
Cl [hydrochloric],,crystalline salts stable at 25 °C
